From ChEMBL document CHEMBL4622965, “Structural Basis of Inhibition of Insulin-Regulated Aminopeptidase by a Macrocyclic Peptidic Inhibitor” (ACS Med Chem Lett, 2020)
Activity calls are given as the source filed them. The rule behind the calls is not given here.

Legend:
[1] = biological target: Endoplasmic reticulum aminopeptidase 2 (Homo sapiens, UniProt Q6P179); test: Inhibition of ERAP2 (unknown origin) using Arg-AMC as substrate by fluorescence based assay
[2] = biological target: Endoplasmic reticulum aminopeptidase 1 (Homo sapiens, UniProt Q9NZ08); test: Inhibition of ERAP1 (unknown origin) using Leu-AMC as substrate by fluorescence based assay
Chain of Endoplasmic reticulum aminopeptidase 1 (Q9NZ08 whole entry): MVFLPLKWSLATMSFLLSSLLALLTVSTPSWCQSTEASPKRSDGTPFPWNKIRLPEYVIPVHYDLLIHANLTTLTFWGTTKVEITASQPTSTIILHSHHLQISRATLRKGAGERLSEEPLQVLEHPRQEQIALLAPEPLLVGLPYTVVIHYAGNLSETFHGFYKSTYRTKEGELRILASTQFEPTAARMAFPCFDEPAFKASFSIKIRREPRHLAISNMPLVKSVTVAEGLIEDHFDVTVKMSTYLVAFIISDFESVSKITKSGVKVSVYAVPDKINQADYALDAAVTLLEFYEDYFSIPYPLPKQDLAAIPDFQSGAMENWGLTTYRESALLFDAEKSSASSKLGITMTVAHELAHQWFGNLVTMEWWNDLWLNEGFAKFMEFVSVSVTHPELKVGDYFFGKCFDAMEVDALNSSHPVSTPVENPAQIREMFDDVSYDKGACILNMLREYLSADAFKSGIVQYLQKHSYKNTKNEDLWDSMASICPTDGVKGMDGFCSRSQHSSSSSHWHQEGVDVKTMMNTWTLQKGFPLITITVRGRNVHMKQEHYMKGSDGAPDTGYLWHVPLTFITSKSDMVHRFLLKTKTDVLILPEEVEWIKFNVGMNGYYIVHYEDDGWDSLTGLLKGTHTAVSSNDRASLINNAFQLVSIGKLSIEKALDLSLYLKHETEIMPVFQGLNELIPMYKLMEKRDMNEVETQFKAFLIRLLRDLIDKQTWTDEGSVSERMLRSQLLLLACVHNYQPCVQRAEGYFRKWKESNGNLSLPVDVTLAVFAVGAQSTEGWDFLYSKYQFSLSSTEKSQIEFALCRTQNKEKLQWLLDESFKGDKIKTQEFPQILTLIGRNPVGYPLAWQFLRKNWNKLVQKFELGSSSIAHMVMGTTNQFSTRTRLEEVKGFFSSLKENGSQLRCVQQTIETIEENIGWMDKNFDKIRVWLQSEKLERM

Chain of Endoplasmic reticulum aminopeptidase 2 (Q6P179 whole entry): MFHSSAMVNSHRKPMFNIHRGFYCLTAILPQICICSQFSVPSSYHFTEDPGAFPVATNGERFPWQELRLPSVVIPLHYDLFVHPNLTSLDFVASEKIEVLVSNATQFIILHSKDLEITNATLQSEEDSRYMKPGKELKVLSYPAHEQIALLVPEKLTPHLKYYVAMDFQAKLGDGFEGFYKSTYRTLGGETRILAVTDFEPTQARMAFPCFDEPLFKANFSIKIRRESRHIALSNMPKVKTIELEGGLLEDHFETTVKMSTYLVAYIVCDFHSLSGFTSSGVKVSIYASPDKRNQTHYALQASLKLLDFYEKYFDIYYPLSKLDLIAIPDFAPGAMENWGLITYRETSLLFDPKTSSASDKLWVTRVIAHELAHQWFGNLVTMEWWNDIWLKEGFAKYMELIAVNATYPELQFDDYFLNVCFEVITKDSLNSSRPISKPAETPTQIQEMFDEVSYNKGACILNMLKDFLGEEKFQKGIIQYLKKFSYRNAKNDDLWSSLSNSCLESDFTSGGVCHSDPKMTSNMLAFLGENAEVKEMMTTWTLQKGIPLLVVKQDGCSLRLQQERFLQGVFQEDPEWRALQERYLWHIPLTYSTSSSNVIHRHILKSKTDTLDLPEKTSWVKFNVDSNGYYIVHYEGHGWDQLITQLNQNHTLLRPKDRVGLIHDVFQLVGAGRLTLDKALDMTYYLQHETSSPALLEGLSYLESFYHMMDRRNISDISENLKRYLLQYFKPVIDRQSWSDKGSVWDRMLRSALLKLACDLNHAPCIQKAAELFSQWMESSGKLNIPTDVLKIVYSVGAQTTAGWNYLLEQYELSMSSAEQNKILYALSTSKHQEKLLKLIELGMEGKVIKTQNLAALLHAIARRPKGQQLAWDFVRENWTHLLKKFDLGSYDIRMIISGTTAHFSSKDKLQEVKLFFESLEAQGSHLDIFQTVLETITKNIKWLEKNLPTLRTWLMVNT

For `N[C@H]1CCSSC[C@@H](C(=O)NCc2ccccc2CC(=O)O)NC(=O)C[C@H](Cc2ccc(O)cc2)NC1=O`, the IC50 [1] was 1.26 µM and the pIC50 [2] was “inactive”.
For `CC[C@H](C)[C@H](NC(=O)[C@H](Cc1ccc(O)cc1)NC(=O)[C@@H](N)C(C)C)C(=O)N[C@@H](Cc1cnc[nH]1)C(=O)N1CCC[C@H]1C(=O)N[C@@H](Cc1ccccc1)C(=O)O` [ANGIOTENSIN IV], the IC50 [1] was 7.94 µM and the IC50 [2] was 79.4 µM.
